Measured values from ChEMBL document CHEMBL3870324, “Asnovolins A-G, Spiromeroterpenoids Isolated from the Fungus Aspergillus novofumigatus, and Suppression of Fibronectin Expression by Asnovolin E” (J Nat Prod, 2016).

Experiments:
Homo sapiens [1] = organism: Homo sapiens; experiment: Inhibition of fibronectin expression in HNDF after 24 hrs by Western blot analysis; format: functional
Homo sapiens [2] = organism: Homo sapiens; experiment: Inhibition of fibronectin expression in HNDF at 25 uM after 24 hrs by Western blot analysis relative to control; format: functional

For C=C(C)[C@@H]1CC[C@H](C)[C@@]2(C[C@@]3(C)C(=C(C)C(=O)[C@@H](C(=O)OC)[C@@H]3C)O2)[C@@]1(C)CCC(=O)OC, the inhibition (Homo sapiens [1]) was “Dose-dependent effect” and the inhibition (Homo sapiens [2]) was 87%.
